Laboratory results: US20230247992A1, “ARTHROPOD CONTROL COMPOSITION” (Firmenich SA, priority 2020, published 2023)

Columns and labels:
Aedes aegypti [1] = experiment: in vitro Warm Body assay, substance introduced in the cage air by forced evaporation (spatial repellence); assay type: in vivo
Protocol: (§1) The controlling effect, repellence & spatial repellence, according to the present invention is determined by testing the Warm Body assay against the yellow fever mosquito, Aedes aegypti Rockefeller strain. […] Observations of controlling efficacy were made on host-seeking females of uniform age, 5 to 10 days old selected as mentioned in the publication mentioned hereinabove. Tested hungry females had access to 10% sugar solution but were not blood-fed. Further information is provided in the accompanying examples.
(§2) The published protocol has been adapted in not manually counting the landing mosquitoes but automatically using an automatic counting software, the switch from Anopheles gambiae to A. aegypti led to a decrease of mosquitoes’ number placed in the tested cage due to the size difference (i.e. 30 mosquitoes instead of 50) and to an increase of lighting as A. aegypti is a diurnal mosquitoes (i.e. 150 lux instead of 4 lux). Further information is provided in the accompanying examples.,
(§3) The controlling effect of the compositions according to the present invention was assessed using an adapted Warm Body assay as defined in Kröber T, Kessler S, Frei J, Bourquin M, Guerin PM. 2010. An in vitro assay for testing mosquito controlling compounds employing a warm body and carbon dioxide as a behavioral activator. J Am Mosq Control Assoc. 26:381-386. In this in-vitro assay the number of mosquito landing on a warm body, simulating an attractive host treated with the tested stimuli, was measured in order to assess the repellence effect.
as §2, with “to Aedes” for “to A.”, “lux).” for “lux). Further information is provided in the accompanying examples.,”
(§4) In addition, since the inventors were interested by assessing spatial repellence added or not to a deterrent effect, the substance was applied using two different technics. Whether, as in Kröber et al. (2010), both deterrent and repellent effect were investigated (i.e. similar effect than most body care applications such as lotion) and the substances was applied on a sandblasted glass Petri dish placed on top of the warm body. Whether only the spatial repellence was investigated (i.e. similar effect than most home care applications such as liquid electric dispenser) and the substance was introduced in the cage space thanks to a forced evaporation system as described in Chappuis C J-F, Niclass Y, Vuilleumier C, Starkenmann C. 2015. Quantitative Headspace Analysis of Selected Odorants from Latrines in Africa and India. Environ. Sci. Technol. 49:6134-6140.
(§5) As stated in Kröber et al. (2010), selected 10-12 days old hungry females, that had ad libitum access to 10% sugar solution but were not blood-fed, were selected for the assay.
The forced evaporation system allows to fill the volume of the cage with stimuli tested, (2-methyl-4-oxo-3-prop-2-ynylcyclopent-2-en-1-yl) 2,2-dimethyl-3-(2-methylprop-1-enyl)cyclopropane-1-carboxylate (prallethrin) and N,N-diethyl-3-methylbenzamide (DEET) being used as benchmarks. In order to limit potential dead volumes in the cage, five flushes of the cage were made before starting the 2 minutes test during which the number of mosquito landings was counted.

Aedes aegypti [2] = experiment: in vitro Warm Body assay, substance applied on glass Petri dish on top of the warm body (deterrence and repellence); assay type: in vivo
Protocol: as §1, §2, §3
as §2, with “to Aedes” for “to A.”, “lux).” for “lux). Further information is provided in the accompanying examples.,”
as §4, §5
On the sandblasted glass Petri dish covering the warm body (28.3 cm^2), 100 µL of the substances diluted at different concentrations in ethanol was applied. The number of mosquito landing on the warm body was counted for each stimuli, N,N-diethyl-3-methylbenzamide (DEET) and ethyl 3-[acetyl(butyl)amino]propanoate (IR3535) being used as benchmarks and pure ethanol as control.

[3] = 0.0017 µg/L air, without substance 54.1±4.9
[4] = 0.017 µg/L air, without substance 54.1±4.9
[5] = 0.17 µg/L air, without substance 54.1±4.9
[6] = 1.7 µg/L air, without substance 54.1±4.9
[7] = 0.04% in ethanol, ethanol control 67.0±8.8 landings
[8] = 1% in ethanol, ethanol control 67.0±8.8 landings
[9] = […] in ethanol, ethanol control 67.0±8.8 landings
[10] = 0.0017 µg/L air, without substance 54.7±3.2
[11] = 0.0017 µg/L air, without substance 56.0±3.6
[12] = 0.017 µg/L air, without substance 54.7±3.2
[13] = 0.017 µg/L air, without substance 56.0±3.6
[14] = 0.17 µg/L air, without substance 54.7±3.2
[15] = 0.17 µg/L air, without substance 56.0±3.6
[16] = 1.7 µg/L air, without substance 54.7±3.2
[17] = 1.7 µg/L air, without substance 56.0±3.6
[18] = 17 µg/L air, without substance 54.1±4.9
[19] = 17 µg/L air, without substance 54.7±3.2
[20] = 17 µg/L air, without substance 56.0±3.6

| SMILES | number of mosquitoes landing within 2 minutes on the warm body, air in the cage saturated with stimulus (Aedes aegypti [1]; [3]) | number of mosquitoes landing within 2 minutes on the warm body, air in the cage saturated with stimulus (Aedes aegypti [1]; [4]) | number of mosquitoes landing within 2 minutes on the warm body, air in the cage saturated with stimulus (Aedes aegypti [1]; [5]) | number of mosquitoes landing within 2 minutes on the warm body, air in the cage saturated with stimulus (Aedes aegypti [1]; [6]) | number of mosquitoes landing within 2 minutes on the warm body (Aedes aegypti [2]; [7]) | number of mosquitoes landing within 2 minutes on the warm body (Aedes aegypti [2]; [8]) | number of mosquitoes landing within 2 minutes on the warm body (Aedes aegypti [2]; [9]) | number of mosquitoes landing within 2 minutes on the warm body, air in the cage saturated with stimulus (Aedes aegypti [1]; [10]) | number of mosquitoes landing within 2 minutes on the warm body, air in the cage saturated with stimulus (Aedes aegypti [1]; [11]) | number of mosquitoes landing within 2 minutes on the warm body, air in the cage saturated with stimulus (Aedes aegypti [1]; [12]) | number of mosquitoes landing within 2 minutes on the warm body, air in the cage saturated with stimulus (Aedes aegypti [1]; [13]) | number of mosquitoes landing within 2 minutes on the warm body, air in the cage saturated with stimulus (Aedes aegypti [1]; [14]) | number of mosquitoes landing within 2 minutes on the warm body, air in the cage saturated with stimulus (Aedes aegypti [1]; [15]) | number of mosquitoes landing within 2 minutes on the warm body, air in the cage saturated with stimulus (Aedes aegypti [1]; [16]) | number of mosquitoes landing within 2 minutes on the warm body, air in the cage saturated with stimulus (Aedes aegypti [1]; [17]) | number of mosquitoes landing within 2 minutes on the warm body, air in the cage saturated with stimulus (Aedes aegypti [1]; [18]) | number of mosquitoes landing within 2 minutes on the warm body, air in the cage saturated with stimulus (Aedes aegypti [1]; [19]) | number of mosquitoes landing within 2 minutes on the warm body, air in the cage saturated with stimulus (Aedes aegypti [1]; [20]) | further results |
| --- | --- | --- | --- | --- | --- | --- | --- | --- | --- | --- | --- | --- | --- | --- | --- | --- | --- | --- | --- |
| COc1ccc(COC(C)=O)cc1 [(4-methoxyphenyl)methyl acetate] | 18.0 | 26.5 | 34.5 | 28.0 | 27.0 | 9.0 | 59.0 |  |  |  |  |  |  |  |  |  |  |  |  |
| COC(C)(C)[C@H]1CC=C(C)CC1 [(4R)-4-(2-methoxypropan-2-yl)-1-methylcyclohexene] |  |  |  |  | 18.0 | 3.0 | 52.0 |  |  |  |  |  |  |  |  |  |  |  | landings per minute (Aedes aegypti [2]; concentration of 0.04%): ~ 10 landings per minute |
| CCN(CC)C(=O)c1cccc(C)c1 [N,N-diethyl-3-methylbenzamide, reference compound] | 35.0 | 28.0 | 24.0 | 1.5 | 5.1 | 2.6 | 44.9 | 35.0 | 35.0 | 28.0 | 28.0 | 24.0 | 24.0 | 1.5 | 1.5 | 3.0 | 3.0 | 3.0 | number of mosquitoes landing within 2 minutes on the warm body (Aedes aegypti [2]; 0.04% in ethanol, ethanol control 59.3±6.9 landings): 5.1; number of mosquitoes landing within 2 minutes on the warm body (Aedes aegypti [2]; 0.04% in ethanol, ethanol control 67.1±9.1 landings): 5.1; number of mosquitoes landing within 2 minutes on the warm body (Aedes aegypti [2]; 1% in ethanol, ethanol control 59.3±6.9 landings): 2.6; number of mosquitoes landing within 2 minutes on the warm body (Aedes aegypti [2]; 1% in ethanol, ethanol control 67.1±9.1 landings): 2.6; number of mosquitoes landing within 2 minutes on the warm body (Aedes aegypti [2]; […] in ethanol, ethanol control 59.3±6.9 landings): 44.9; number of mosquitoes landing within 2 minutes on the warm body (Aedes aegypti [2]; […] in ethanol, ethanol control 67.1±9.1 landings): 44.9 |
| CCC=CCC1C(=O)CCC1CC(=O)OC (centres unmarked) [methyl 2-(3-oxo-2-pent-2-enylcyclopentyl)acetate] |  | 10.0 | 4.0 | 15.0 | 2.0 | 1.0 | 54.0 |  |  |  |  |  |  |  |  |  |  |  |  |
| C#CCC1=C(C)C(OC(=O)C2C(C=C(C)C)C2(C)C)CC1=O (centres unmarked) [prallethrin, (2-methyl-4-oxo-3-prop-2-ynylcyclopent-2-en-1-yl) 2,2-dimethyl-3-(2-methylprop-1-enyl)cyclopropane-1-carboxylate, reference compound] | 77.0 | 66.0 | 15.5 | 3.0 |  |  |  | 77.0 | 77.0 | 66.0 | 66.0 | 15.5 | 15.5 | 3.0 | 3.0 | 1.0 | 1.0 | 1.0 |  |
